Test results from patent publication US20230398137A1, “METHODS FOR LOWERING HBA1C LEVEL WITH A COMBINATION OF A BET BROMODOMAIN INHIBITOR AND A SODIUM DEPENDENT GLUCOSE TRANSPORT 2 INHIBITOR” (Resverlogix Corp., priority 2020, published 2023).
Read-outs that look alike come from different tables or passages of the source.

Tests used:
HbA1c [1] = details: T2DM and albuminuric CKD, cited from earlier work
HbA1c [2] = details: over the duration of the trial; 95% CI −0.61 to −0.56; p<0.001; cited from earlier work
HbA1c [3] = assay: BETonMACE Phase 3 trial (NCT02586155), post-hoc analysis of HbA1c from baseline to last visit on treatment (LVT); type: in vivo, human
Description: Apabetalone (RVX-208) was evaluated in a recently completed clinical Phase 3 trial (BETonMACE; NCT02586155) for the effect on MACE in type 2 diabetes patients with low HDL cholesterol (below 40 mg/dL for males and below 45 mg/dL for females) and a recent acute coronary syndrome (ACS) (preceding 7-90 days). All patients received high intensity statin treatment or maximum tolerated statin treatment, which was 20-40 mg daily or a maximum daily dose of 40 mg for rosuvastatin or 40-80 mg daily or a maximum daily dose of 80 mg for atorvastatin.
Patients (n=2425) with ACS in the preceding 7 to 90 days, with type 2 diabetes and low HDL cholesterol (≤40 mg/dl for men, ≤45 mg/dl for women), receiving intensive or maximum-tolerated therapy with atorvastatin or rosuvastatin, were assigned in double-blind fashion to receive apabetalone 100 mg orally twice daily or matching placebo.
Specifically, a total of 150 patients received both RVX-208 and an SGLT2 inhibitor; a total of 148 received an SGLT2 inhibitor, but no RVX-208; a total of 1062 received RVX-208, but no SGLT2 inhibitor; a total of 1058 received neither RVX-208 or an SGLT2 inhibitor.
Patients who were randomized and received at least one dose of SGLT2 treatment while actively receiving study drug (RVX-208 or placebo) were counted as those receiving a combination of SGLT2 treatment with either RVX-208 or placebo. Patients receiving more than one drug therapy within the SGLT2 inhibitor class were counted only once based upon whichever drug therapy patients continued taking at the end of treatment with study drug (RVX-208 or placebo). In cases where patients were receiving more than one drug therapy within the SGLT2 inhibitor class at the end of treatment with study drug, whichever SGLT2 inhibitor therapy was received for longer was counted.
The last visit on treatment (LVT) timepoint represented the longest study exposure duration for patients receiving RVX-208 or placebo with and without SGLT2 inhibitors and is the focus of this analysis.

HbA1c [4] = details: cited from earlier work

Cc1ccc([C@@H]2O[C@H](CO)[C@@H](O)[C@H](O)[C@H]2O)cc1Cc1ccc(-c2ccc(F)cc2)s1 [canagliflozin]
least-squares mean level of HbA1c lower than in the placebo group by (HbA1c [1]; at 13 weeks, 95% CI 0.26 to 0.37): 0.31%
overall mean difference in the reduction of HbA1c versus placebo (HbA1c [1]; throughout the trial, 95% CI 0.20 to 0.31): 0.25%
mean difference in HbA1c between drug group and placebo group (HbA1c [2]): −0.58%

COc1cc(OC)c2c(=O)[nH]c(-c3cc(C)c(OCCO)c(C)c3)nc2c1 [RVX-208, 2-(4-(2-hydroxyethoxy)-3,5-dimethylphenyl)-5,7-dimethoxyquinazolin-4(3H)-one]
ability to reduce levels of HbA1c (in words) (HbA1c [3]; T2DM patients with a recent ACS): did not demonstrate the ability to statistically reduce levels of HbA1c
median HbA1c at baseline (HbA1c [3]; T2DM patients with low HDL cholesterol and recent ACS on high intensity or maximum tolerated statin, baseline value of the group): 7.3%
median HbA1c at the last visit on treatment (LVT) (HbA1c [3]; T2DM patients with recent ACS on statin, apabetalone 100 mg orally twice daily where given, median time to LVT about 2 years): 7.3%
median change of HbA1c from baseline to LVT (HbA1c [3]; T2DM patients with recent ACS, FIG. 3): +0.20%
mean change of HbA1c from baseline to LVT (HbA1c [3]; T2DM patients with recent ACS, FIG. 4): +0.22%

OC[C@H]1O[C@@H](c2ccc(Cl)c(Cc3ccc(O[C@H]4CCOC4)cc3)c2)[C@H](O)[C@@H](O)[C@@H]1O [empagliflozin]
reduction of HbA1c compared to placebo (adjusted mean difference) (HbA1c [4]; 10-mg group, after 12 weeks, 95% CI −0.58 to −0.49): 0.54%
adjusted mean difference in HbA1c levels versus placebo (HbA1c [4]; 10-mg group, week 94, 95% CI −0.48 to −0.36): −0.42%
adjusted mean difference in HbA1c levels versus placebo (HbA1c [4]; 10-mg group, week 206, 95% CI −0.40 to −0.08): −0.24%
adjusted mean difference in HbA1c compared to placebo (HbA1c [4]; 25-mg group, after 12 weeks, 95% CI −0.64 to −0.55): −0.60 percentage points
adjusted mean difference in HbA1c levels versus placebo (HbA1c [4]; 25-mg group, week 94, 95% CI −0.54 to −0.41): −0.47%
adjusted mean difference in HbA1c levels versus placebo (HbA1c [4]; 25-mg group, week 206, 95% CI −0.51 to −0.20): −0.36%
